Like-named read-outs stand apart in the source and are kept apart here. Blank lines part the entries; values can stand above or below the molecule they belong to.
How the values were obtained:
[1] = system: Brevibacterium helvolum ATCC 11822; experiment: Growth in basal medium with additions; format: cell-based; details: 1% addition to basal medium
Procedure: (§1) In order to obtain a culture containing a maleate hydratase activity by cultivating microorganism capable of producing this enzyme, usual cultivation methods can be used; namely cultivating in a nutrient medium containing organic compounds as a carbon source, organic and/or inorganic compounds as a nitrogen source, and mineral salts, at pH 4 to 10, at 10° to 40° C. It is preferred to add at least one compound selected from the group consisting of maleic acid and citraconic acid since a culture having high maleate hydratase activity can be obtained by the addition of such compound. The concentration of these compounds to be added in a medium is generally from about 0.1 to 3% by weight, preferably from about 0.5 to 2% by weight. The effect of these compounds is shown in Table 1 hereinbelow and Examples 1 and 2.
(§2) *Basal Medium: NH4 Cl 0.1%, KH2 PO4 0.14%, Na2

[2] = system: maleate hydratase; experiment: Induction of maleate hydratase by additions to the basal medium (specific activity of the cell sonicate supernatant); format: cell-based, Brevibacterium helvolum ATCC 11822; details: for Specific Activity (amount of (R)-malic acid formed): crude enzyme reacted with maleate at 30° C. for 60 minutes, pH 7.2
Procedure: as §1, §2
**Determined by the amount of (R)malic acid formed when reaction mixture
(total volume 2,000 μl, pH 7.2) containing 50 mM TrisHCl buffer (1,700
μl), 100 mM maleate (200 μl), and crude enzyme preparation (cells
sonicate supernatant, 100 μl) was reacted at 30° C. for 60

[3] = system: microbial maleate hydratase; format: biochemical
[4] = system: microbial maleate hydratase; experiment: Action and specificity of the enzyme (substrate); format: biochemical
Source text: The enzyme catalyzes a reaction in which maleic acid is hydrated to form (R)-malic acid.

- Induction Fold ([2]; 1% addition to basal medium, relative to no addition (1.0)): 4.8
Structure (SMILES): C/C(=C/C(=O)O)C(=O)O [Citraconic Acid, citraconic acid]
- Growth at 68 Hours O.D. (660 nm) [1]: 4.1
- Specific Activity (amount of (R)-malic acid formed) ([2]; 1% addition to basal medium): 3.13

Structure (SMILES): O=C(O)CN(CCN(CC(=O)O)CC(=O)O)CC(=O)O [EDTA]
- inhibition of enzyme activity [3]: no inhibition

Structure (SMILES): O=C(O)CI [IAA, iodoacetic acid]
- inhibition of enzyme activity [3]: 12%

- Induction Fold ([2]; 1 %): 3.9
Structure (SMILES): O=C(O)/C=C\C(=O)O [Maleic Acid, maleic acid]
- Growth at 68 Hours O.D. (660 nm) [1]: 4.5
- Specific Activity (amount of (R)-malic acid formed) ([2]; 1% addition to basal medium): 2.56

Structure (SMILES): CCN1C(=O)C=CC1=O [NEM, N-ethylmaleimide]
- inhibition of enzyme activity ([3]; inhibitor at 10 mM): 33%

Structure (SMILES): [Na+].[O-][I+3]([O-])([O-])[O-] [NaIO4, sodium metaperiodate]
- inhibition of enzyme activity ([3]; inhibitor concentration 1 mM): 17%

Structure (SMILES): O=C(O)c1cc[c]([Hg][Cl])cc1 [PCMB, p-chloromercuribenzoic acid]
- inhibition of enzyme activity ([3]; inhibitor concentration 1 mM): 100%

Structure (SMILES): O=S(=O)(F)Cc1ccccc1 [PMSF, phenylmethylsulfonylfluoride]
- inhibition of enzyme activity ([3]; inhibitor concentration 1 mM): no inhibition

- action of the enzyme on the substance as substrate [4]: does not act
Structure (SMILES): O=C(O)/C=C/C(=O)O [fumaric acid]
